# Laboratory results as given in patent US12723055B2, “Phosphoantigen prodrug compounds” (priority 2018, dated 2026).
# Legend:
# human CD8+ T cells = test: Activation of human CD8+ T cells in PBMC (CD69 and CD25 upregulation, flow cytometry); format: cell-based; details: for Concentration without CD8+ T cell activation relative to Vγ9/Vδ2 T-cell activation EC50: 1 μM versus calculated EC50; for Activation of CD8+ T cells: human PBMC, 20 h, up to 1 μM, CD69/CD25
# Procedure: FIG. 11. FACS data showing a lack of activation of human CD8+ T cells by the HMBP phosphonate ProPAgen 4d. Human PBMCs were incubated with the indicated concentrations of ProPAgen 4d for 20 h. TCR CD8^+ T cells were then assessed for the upregulation of cell surface markers, CD69 and CD25, as a readout of the activation of CD8^+ T cells. Data was collected and analysed individually from two separate donors: Donor (1) results shown in FIG. 11A, Donor (2) results shown in FIG. 11B.
# FIG. 12. FACS data showing a lack of activation of human CD8+ T cells by the HMBP phosphonate ProPAgen 9d. Human PBMCs were incubated with the indicated concentrations of ProPAgen 9d for 20 h. TCR CD8^+ T cells were then assessed for the upregulation of cell surface markers, CD69 and CD25, as a readout of the activation of CD8^+ T cells. Data was collected and analysed individually from two separate donors: Donor (1) results shown in FIG. 12A, Donor (2) results shown in FIG. 12B.
# Like peripheral blood γδ T-cells, peripheral blood CD8+ T-cells lack appreciable levels of surface CD69 or CD25 under steady state conditions, but upon T-cell receptor (TCR) stimulation upregulate both T-cell activation markers within 72 hours. PAg responsive CD8 T-cells were then distinguished by TCR CD8 expression and assessed for the upregulation CD69 and CD25.
# Blood was obtained in the presence of a mixture of Heparin and Ethylenediaminetetraacetic acid (EDTA) as anticoagulants (2 U/ml heparin, 1.5 mM EDTA) from consented healthy donors (approved by the NRES Committee West Midlands ethical board; REC reference 14/WM/1254). Blood was then layered on a density gradient medium, lymphoprep (Stem Cell Technologies) and Peripheral blood mononuclear cells (PBMCs) were purified by gradient centrifugation. The cells were washed 2 times with Phosphate Buffered Saline (PBS), then resuspended in RPMI-1640 media supplemented with 2 mM L-glutamine, 25 mM HEPES, 1% sodium pyruvate, 50 μg/ml penicillin/streptomycin (Invitrogen) and 10% foetal calf serum.
# Untreated and treated PBMCs were labelled with Zombie aqua viability dye (Biolegend) and subsequently were stained with a mixture of BV421-conjugated anti-CD3 (UCHT1, Biolegend), BV650-conjugated anti-CD8 (SK1; BD Bioscience), FITC-conjugated anti-CD25 (M-A25, Biolegend), PE-conjugated anti-CD69 (TP1.55.3; Beckman Coulter) and PE Cy5-conjugated anti-Vγ9 TCR (IMMU360, Beckman Coulter) and APC-conjugated anti-Vδ2 TCR (123R3, Miltenyi Biotech) antibodies. The percentages of CD69^+CD25^+ within CD8^+ T cell subset or Vγ9Vδ2 T-cell population were measured using flow cytometer. Data were analysed using FlowJo V10 software.
# human Vγ9/Vδ2+ T cells = test: Activation of human Vγ9/Vδ2+ T cells in PBMC (CD69 and CD25 upregulation, flow cytometry); format: cell-based; details: for Vγ9/Vδ2 T-cell activation potency (in words): human PBMC from healthy donors, 18-20 h, CD69/CD25, compared with HMBP phosphate ProPAgens or HMBPP; for EC50: human PBMC, 18 hr incubation, CD69 and CD25 upregulation
# Procedure: FIG. 7. Activation of human Vγ9/Vδ2^+ T cells by HMBP phosphonate ProPAgens 4d and 9d. Human peripheral blood mononuclear cells (PBMC) were incubated with the indicated concentrations of ProPAgens 4d (left) and 9d (right) for 18 hr. TCR Vγ9/Vδ2^+ T cells were then assessed for the upregulation of cell surface markers, CD69 and CD25, as a readout to the activation of Vγ9/Vδ2^+ T cells. EC50 for both ProPAgens is ca. 8 pM (picomolar).
# FIG. 8. FACS data showing the activation of human Vγ9/Vδ2^+ T cells by the HMBP phosphonate ProPAgen 4d in a dose-dependent manner. Human peripheral blood mononuclear cells (PBMC) were incubated with the indicated concentrations of ProPAgens 4d for 18 h (FIG. 8A) or 20 h (FIGS. 8B and 8C). For 20 h incubations, data was collected and analysed individually from two separate donors: Donor (1) results shown in FIG. 8B, Donor (2) results shown in FIG. 8C. TCR Vγ9/Vδ2^+ T cells were then assessed for the upregulation of cell surface markers, CD69 and CD25, as a readout to the activation of Vγ9/Vδ2^+ T cells.
# FIG. 9. FACS data showing the activation of human Vγ9/Vδ2^+ T cells by the HMBP phosphonate ProPAgen 9d in a dose-dependent manner. Human peripheral blood mononuclear cells (PBMC) were incubated with the indicated concentrations of ProPAgens 9d for 18 h (FIG. 9A) or 20 h (FIGS. 9B and 9C). For 20 h incubations, data was collected and analysed individually from two separate donors: Donor (1) results shown in FIG. 9B, Donor (2) results shown in FIG. 9C. TCR Vγ9/Vδ2^+ T cells were then assessed for the upregulation of cell surface markers, CD69 and CD25, as a readout to the activation of Vγ9/Vδ2^+ T cells.
# FIG. 10. […] Data was collected and analysed individually from two separate donors: Donor (1) results shown in FIG. 10A, Donor (2) results shown in FIG. 10B. TCR Vγ9/Vδ2^+ T cells were then assessed for the upregulation of cell surface markers, CD69 and CD25, as a readout to the activation of Vγ9/Vδ2^+ T cells.
# Peripheral blood γδ T-cells lack appreciable levels of surface CD69 or CD25 under steady state conditions, but upon T-cell receptor (TCR) stimulation upregulate both T-cell activation markers within 72 hours. PAg responsive Vγ9/Vδ2 T-cells were then distinguished by TCR Vγ9 and Vδ2 expression and assessed for the upregulation CD69 and CD25. […]
# Untreated and treated PBMCs were labelled with Zombie aqua viability dye (Biolegend) and subsequently were stained with a mixture of BV421-conjugated anti-CD3 (UCHT1, Biolegend), BV650-conjugated anti-CD8 (SK1; BD Bioscience), FITC-conjugated anti-CD25 (M-A25, Biolegend), PE-conjugated anti-CD69 (TP1.55.3; Beckman Coulter) and PE Cy5-conjugated anti-Vγ9 TCR (IMMU360, Beckman Coulter) and APC-conjugated anti-Vδ2 TCR (123R3, Miltenyi Biotech) antibodies. […] Data were analysed using FlowJo V10 software.
# [1] = Stability in human serum at 37° C. monitored by 31P NMR; format: in vitro ADME; details: 12 h
# Procedure: FIG. 5: Stability of HMBP phosphonate ProPAgen 4d in human serum at 37° C. for 12 hours as monitored by ^31P NMR. Prodrug 4d (5.0 mg) was dissolved in DMSO-d6 (0.10 mL) and D2O (0.15 mL). All ^31P NMR spectra were recorded at 37° C. Initially, a ^31P NMR scan of prodrug 4d (5.0 mg) in DMSO-d6 (0.10 mL) and D2O (0.15 mL) was recorded (shown as compound 4d alone in the figure). Following this, a previously defrosted human serum (0.30 mL) was added to the NMR tube and a spectrum immediately run. Spectra were recorded at 30 min after the addition and then at even time intervals over 12 hr.
# FIG. 6: Stability of HMBP phosphonate ProPAgen 9a in human serum at 37° C. for 12 hours as monitored by ^31P NMR. Same as for compound 4d above. […] In fact, these are eight peaks as predicted and two extra peaks are seen when zoomed into these peaks to make the predicted eight phosphorous peaks of such compounds.
# ProPAgen 4d with human serum at 37° C. for 12 h and monitored the sample by ^31P-NMR as reported previously^11.
# [2] = system: T24 urinary bladder carcinoma cell lines; test: Cytotoxicity assay: specific lysis of T24 bladder cancer cells by Vγ9/Vδ2 T-cells; format: cell-based, human; details: T24 cells incubated 4 hours with 100 pM ProPAgen 4d; effector target ratio 10:1, 18 hours; compared with 10 μM zoledronate and HMBPP
# Procedure: FIG. 13. Cytotoxocity Assay showing potent lysis of bladder cancer cells following incubation with the HMBP phosphonate ProPAgen 4d. ProPAgen 4d mediates the specific lysis of T24 bladder cancer cells by Vγ9/Vδ2 T-cells.
# Vγ9Vδ2 T cells were expanded from PBMCs in the presence of 5 μM zoledronate for 14 days and 100 U/ml IL-2 (Peprotech) was added into the media every 2-3 days, yielding ~85% Vγ9Vδ2 T cells. […] All cells were then labelled with eFluor780 viability dye and CFSE^+ eFluor780 viability dye^+ cells were measured using flow cytometry. Data were analysed using FlowJo V10.
Compound,Concentration without CD8+ T cell activation relative to Vγ9/Vδ2 T-cell activation EC50 (human CD8+ T cells),Activation of CD8+ T cells (human CD8+ T cells),Vγ9/Vδ2 T-cell activation potency (in words) (human Vγ9/Vδ2+ T cells),EC50 (human Vγ9/Vδ2+ T cells) [pM],Stability in human serum [1],T24 bladder cancer lysis by Vγ9/Vδ2 T-cells [2]
C/C(=C\CC(F)(F)P(=O)(N[C@@H](C)C(=O)OCc1ccccc1)Oc1ccccc1)CO (stereo partly shown) [ProPAgen 9d],"approx. 100,000 times",did not exhibit activation,potent Vγ9/Vδ2 T-cells activation,~8,–,–
C/C(=C\CCP(=O)(N[C@@H](C)C(=O)OCc1ccccc1)Oc1ccccc1)CO (stereo partly shown) [ProPAgen 4d],"approx. 100,000 times",did not exhibit activation,potent Vγ9/Vδ2 T-cells activation,~8,no degradation observed,significant enhancement
